Laboratory results taken from patent publication US6956034B2, “Oxazin(ethyl)one compounds used as fungicides” (BASF Aktiengesellschaft, priority 2001, dated 2005).

Tests used:
[1] = test system: mildew of cucumbers (Sphaerotheca fuliginea); test: Protective activity against mildew of cucumbers; type: in vivo; details: cucumber seedlings; for percentage of infection of leaves at the prescribed concentration of active compound: sprayed 20 h before inoculation, 7 days, untreated 90
Procedure: The active compounds were used as aqueous preparations of active compounds which contained the active compound in a concentration of 250 ppm, 63 ppm, 16 ppm and 4 ppm, respectively. The aqueous preparation of active compound was prepared by diluting a stock solution of 10% by weight of active compound, 63% by weight of cyclohexanone and 27% by weight of emulsifier (20 parts by weight of Nekanil® LN (Lutensol® AP6, wetting agent having emulsifying and dispersing action based on ethoxylated alkylphenols) and 10 parts by weight of Wettol® EM (nonionic emulsifier based on ethoxylated castor oil)) with water in the amount required for the desired concentration.
Leaves of cucumber seedlings of the cultivar “Chinesische Schlange” which had been grown in pots were, at the cotyledon stage, sprayed to runoff point with an aqueous preparation of active compound. 20 hours after the spray coating had dried on, the plants were inoculated with an aqueous spore suspension of mildew of cucumbers (Sphaerotheca fuliginea). The plants were then cultivated in a greenhouse at 20-24° C. and 60-80% relative atmospheric humidity for 7 days. The extent of the mildew development was then determined visually in % infection of the cotyledon area.

[2] = test system: mildew of wheat (Erysiphe [syn. Blumeria] graminis forma specialis tritici); test: Protective activity against mildew of wheat; type: in vivo; details: wheat seedlings, sprayed 24 h before inoculation, 7 days, untreated 85
Procedure: The active compounds were used as aqueous preparations of active compounds which contained the active compound in a concentration of 250 ppm, 63 ppm, 16 ppm and 4 ppm, respectively. The aqueous preparation of active compound was prepared by diluting a stock solution of 10% by weight of active compound, 63% by weight of cyclohexanone and 27% by weight of emulsifier (20 parts by weight of Nekanil® LN (Lutensol® AP6, wetting agent having emulsifying and dispersing action based on ethoxylated alkylphenols) and 10 parts by weight of Wettol® EM (nonionic emulsifier based on ethoxylated castor oil)) with water in the amount required for the desired concentration. The first fully developed leaves of the wheat seedlings of the variety “Kanzler” which had been grown in pots were sprayed to runoff point with an aqueous preparation of active compound prepared from a stock solution containing 10% of active compound, […]. 24 hours after the spray coating had dried on, the plants were inoculated with an aqueous spore suspension of mildew of wheat (Erysiphe [syn. Blumeria] graminis forma specialis. tritici). The plants were then cultivated in a greenhouse at 20-24° C. and 60-90% relative atmospheric humidity. After 7 days the extent of the mildew development was determined visually in % infection of the leaves.

SMILES | infection of the cotyledon area ([1]; 4 ppm, untreated plants 90% infected) | percentage of infection of leaves at the prescribed concentration of active compound ([1]; 16 ppm) | percentage of infection of leaves at the prescribed concentration of active compound ([1]; 63 ppm) | percentage of infection of leaves at the prescribed concentration of active compound ([1]; 250 ppm) | percentage of infection of leaves at the prescribed concentration of active compound ([2]; 16 ppm) | percentage of infection of leaves at the prescribed concentration of active compound ([2]; 63 ppm) | percentage of infection of leaves at the prescribed concentration of active compound ([2]; 250 ppm)
CCCn1c(=NOC)oc2ccc(Cl)cc2c1=O [Compound I - A1.2, O-Methyl (6-chloro-3-propyl-4H-1,3-benz[e]oxazin-4(3H)-one)-2-oxime] | no infection |  |  |  |  |  | 
CCCn1c(=NOC)oc2ccc(Cl)cc2c1=O [I - A1.2] |  | 0% | 0% | 0% | 0% | 0% | 0%
CCCn1c(=NOC)oc2ccc(I)cc2c1=O [I - A1.4] |  | 0% | 0% | 0% | 0% | 0% | 0%
CCCn1c(=NOCC)oc2ccc(I)cc2c1=O [I - A1.8] |  | 0% | 0% | 0% | 0% | 0% | 0%
CCCON=c1oc2ccc(I)cc2c(=O)n1CCC [I - A1.12] |  | 0% | 0% | 0% | 0% | 0% | 0%
CCCCn1c(=NOC)oc2ccc(I)cc2c1=O [I - A1.20] |  | 0% | 0% | 0% | 0% | 0% | 0%
CCCCn1c(=NOCC)oc2ccc(I)cc2c1=O [I - A1.24] |  | 0% | 0% | 0% | 0% | 0% | 0%
CCCCn1c(=NOCCC)oc2ccc(I)cc2c1=O [I - A1.28] |  | 0% | 0% | 0% | 0% | 0% | 0%
CON=c1oc2ccc(I)cc2c(=O)n1CC1CC1 [I - A1.68] |  | 0% | 0% | 0% | 0% | 0% | 0%
CCON=c1oc2ccc(I)cc2c(=O)n1CC1CC1 [I - A1.72] |  | 0% | 0% | 0% | 0% | 0% | 0%
CCCON=c1oc2ccc(I)cc2c(=O)n1CC1CC1 [I - A1.76] |  | 0% | 0% | 0% | 0% | 0% | 0%
CCCn1c(=NOC)oc2ccc(C)cc2c1=O [I - A1.132] |  | 10% | 10% | 0% |  |  | 
CCCn1c(=NOC)oc2ccc(OC)cc2c1=O [I - A1.133] |  | 10% | 5% | 0% | 20% | 0% | 0%
CC(C)ON=c1oc2ccc(I)cc2c(=O)n1CC1CC1 [I - A1.134] |  | 0% | 0% | 0% | 0% | 0% | 0%
O=c1c2cc(I)ccc2oc(=NOCC2CC2)n1CC1CC1 [I - A1.135] |  | 3% | 0% | 0% | 5% | 0% | 0%
CCCCn1c(=NOCC2CC2)oc2ccc(I)cc2c1=O [I - A1.136] |  | 0% | 0% | 0% | 0% | 0% | 0%
CCCn1c(=NOCC2CC2)oc2ccc(I)cc2c1=O [I - A1.137] |  | 0% | 0% | 0% | 0% | 0% | 0%
CCCCn1c(=NOC(C)C)oc2ccc(I)cc2c1=O [I - A1.138] |  | 0% | 0% | 0% | 0% | 0% | 0%
CCCn1c(=NOC(C)C)oc2ccc(I)cc2c1=O [I - A1.139] |  | 0% | 0% | 0% | 0% | 0% | 0%
